# Assays:
# ileum of the guinea pig = experiment: Measurement of the ileum constricting activity of the guinea pig (isolated ileum, tension recording); type: cell-based; settings: concentration of 1×10^−8 M in chamber, 37° C. physiological saline; FIGS. 5 and 6
# Protocol: The ileum constricting activity of the guinea pig was performed in accordance with a method by Champagne et al. (Champagne D. E. et al., Proc. Natl. Acad. Sci. USA., 91, 138-142, 1994).
# The ileum of the guinea pig was excised, and the both ends thereof were fastened with a cotton thread. Then, one end thereof was fixed to a sample chamber (5 ml capacity) and another end was fixed to a transducer to obtain a specimen for the examination. The inside of the sample chamber was maintained constantly with 37° C. physiological saline. The samples to be measured were dissolved into the physiological saline solution, and added to the sample chamber. The changes of tension of the ileum by constriction were recorded.
# rectum of the carp = experiment: Measurement of the rectum constricting activity of the carp (isolated intestine, tension recording); type: cell-based; settings: added to the chamber with the amount corresponding to one head of Octopus vulgaris; FIGS. 3 and 4
# Protocol: The rectum constricting activity of the carp was performed as follow. That is, the intestine of the carp was excised, and the both ends thereof were fastened with a cotton thread. Then, one end thereof was fixed to a sample chamber (2 ml capacity) and another end was fixed to a transducer to obtain a specimen for the examination. The samples to be measured were dissolved into the physiological saline solution, and added to the sample chamber. The changes of tension of the intestine by constriction were recorded.
Substance,constricting activity against the ileum of the guinea pig (ileum of the guinea pig),constricting activity against the rectum of the carp (rectum of the carp)
"H-Lys-Pro-Pro-Ser-Ser-Ser-Glu-Phe-Ile-Gly-Leu-Met-NH2 (H-KPPSSSEFIGLM-NH2) [Compound (2), tachykinin neuropeptide of Octopus vulgaris posterior salivary gland, isolated from Fraction B and also synthesized]",constricted strongly,constricted strongly
"H-Lys-Pro-Pro-Ser-Ser-Ser-Glu-Phe-Val-Gly-Leu-Met-NH2 (H-KPPSSSEFVGLM-NH2) [Compound (1), tachykinin neuropeptide of Octopus vulgaris posterior salivary gland, isolated from Fraction A and also synthesized]",constricted strongly,constricted strongly

# Source: patent US20090023184A1, “Novel Tachykinin Peptides, Precursor Peptides Thereof And Genes Encoding The Same” (SUNTORY LIMITED, priority 1999, published 2009)
